Measurements published in article PMC8910697, “Development of VPC-70619, a Small-Molecule N-Myc Inhibitor as a Potential Therapy for Neuroendocrine Prostate Cancer” (International Journal of Molecular Sciences, 2022).
Where two headings read alike, the source gives them in different places.

Key:
[1] = tested on: N-Myc-Max transcription activity (LNCaP-NMYC cells); assay: Myc transcription assay (Cignal Myc reporter, luciferase) in LNCaP-NMYC cells; type: cell-based
[2] = tested on: N-Myc-Max transcription activity (LNCaP-NMYC cells); assay: as above; type: cell-based; settings: for IC50: Homo sapiens, LNCaP, Table 1, transcriptional assay in LNCaP cells overexpressing N-Myc, read-out: IC50; for transcription inhibition activity (in words): LNCaP-NMYC, screened at 10 µM and 5 µM
Description: To determine the optimal substitutions on the free phenyl ring, we used the active scaffold for a second substructure search against the ZINC15 database to identify a set of 181 analogues for further validation (VPC-70617 to -70799, presented in Supplementary Table S1). Compounds were tested for their inhibition of a N-Myc-Max luciferase transcription activity assay at 5 and 10 µM Figure 2a. Herein, we inspected all the proposed substitutions on the scaffold to discern the features required to construct a possible SAR model for inhibitors targeting N-Myc-Max/DBD complex (Figure 2b).
LNCaP-NMYC cells were transfected using TransIT-2020 transfection reagents per the manufacturer’s protocol. Cells were plated at a density of 10,000 cells per well of a 96-well plate. Following 24 h treatment with 5 µM or 10 µM of the compounds, the Myc reporter activity was measured using the Cignal Myc Reporter Assay Kit from Qiagen (#336841) (Hilden, Germany) per the manufacturer’s instructions.

[3] = tested on: HO15.19 cells; assay: Cell viability counter-screen (CellTiter-Glo), Myc-negative HO15.19; type: cell-based; settings: for inhibition at 10 µM: Rattus norvegicus, HO15.19, 10 µM, Myc-negative specificity control
Description: (§1) The 54 compounds were tested at 10 µM for their inhibition of the IMR32 human neuroblastoma cell line, in which the MYCN gene is amplified and actively expressed (Table 3). HO15.19 cell line (Myc-negative) was used in parallel as a compound specificity control.
(§2) Viability of N-Myc positive (IMR32and NCI-H660) and negative (HO15.19) cells were determined using the CellTiter-Glo Luminescent Cell Viability Assay (Promega cat. G7570) (Madison, WI, USA). Cells were seeded into a 96-well white plate with a clear bottom: 10,000 cells per well for the IMR32 cells cultured in EMEM supplemented with 10% FBS, 2000 HO15.19 cells per well in Eagle’s minimum essential medium (EMEM) supplemented with 10% FBS, and 2000 cells per well for the NCI-H660 neuroendocrine cells cultured in RPMI supplemented 5% FBS, 1% Insulin-Transferrin-Selenium (Thermo Fisher, 41400-045), 10nM b-estradiol (Sigma, E8875), 10nM hydrocortisone (Sigma H0888) and 1% matrigel. Following 24 h incubation, the cells were treated with serial dilutions of the derivatives along with the respective parental compound starting at 25 μM for 72 h. Cell Titer Glo was added to each well at a ratio of 1:1 and incubated on a shaker at RT for 2 min. Luminescence and IC50 was measured with the TECAN InfiniteM200 plate reader (Männedorf, Switzerland).

[4] = Microsomal stability assay; type: in vitro ADME, Mouse; settings: mouse liver microsomes, 1 µM compound
Description: A microsomal stability assay was performed using the Corning Gentest NADPH Regenerating System (Corning, #451220/41200) (Corning, NY, USA). Mouse liver microsomes (MLM) (Xenotech, M1000) (Kansas City, KS, USA) and compounds were diluted to a final concentration of 0.15 mg/mL and 1 μM respectively. These were prepared into a 500 μL solution with 100 mM potassium phosphate buffer (pH = 7.4). Imipramine was used as a control. NADPH solutions A and B were mixed in a 5:1 ratio, and 24 μL of the NADPH was added to each of the MLM/compound samples at 30 s intervals. At time points 10, 20, and 45 min, 100 μL of reaction was added to the stopping solution. Samples were centrifuged at 18,000× g and incubated at 4 °C for 10 min. Samples were then loaded onto a LC-MS 96-well plate for analysis.

[5] = Pharmacokinetics after IP and PO dosing; type: in vivo, male Balb/c mice; settings: 10 mg/kg; for Tmax: 75:25 PG/PEG 400 formulation; for Cmax: 70551 in 75:25 PG/PEG 400, 70619 in 20:80 Kolliphor EL
Description: In order to characterize VPC-70619 as a drug candidate against N-myc, its pharmacokinetic (PK) characteristics were evaluated in Balb/c mice following intraperitoneal (IP) and peroral (PO) administrations. As presented in Figure 5, we determined the PK properties of VPC-70619 and compared it to the parental molecule, VPC-70551. […] The clearance of 70551 for PO delivery was extremely slow, and we could not determine the T1/2 in the experimental conditions used for this assay. […] Therefore, VPC-70619 was deemed to have appropriate efficacy in vivo, and a better pharmacokinetic profile due to higher bioavailability for both oral and intraperitoneal administration.
Bienta Enamine Biology Services (Kyiv, Ukraine) conducted PK studies according to the Enamine PK study protocols and Institutional Animal Care and Use Guidelines. The PK studies were reviewed and approved by the Bienta Animal Care and Use Committee (BACUC) under the project identification codes PK-VPC-112618 (approved 17 December 2018) and PK-VPC-101119 (approved 21 October 2019), for VPC-70551 and […], respectively. Evaluation of 70619 and 70551 was conducted in male Balb/c mice through intraperitoneal (IP) and peroral (PO) administration. Measurements were taken at six time points: 5, 15, 60, 120, 240, and 360 min for IP; 15, 30, 60, 120, 240, and 480 min for PO. Four mice were included in each treatment group for each time point; one mouse each for IP and PO was included as a control. Initial target administration for both IP and PO was 10 mg/kg dose level, 2 mg/mL dose concentration, and 5 mL/kg dose volume. Concentration of the compounds was evaluated in the plasma samples using an LC-MS/MS system.

[6] = tested on: IMR32 cells; assay: Cell viability (CellTiter-Glo), IMR32; type: cell-based; settings: Homo sapiens, IMR-32
Description: as §1, §2

IC50 [2] [µM] | SMILES | inhibition at 25 µM [1] [%] | transcription inhibition activity (in words) [2] | inhibition at 10 µM [3] [%] | inhibition at 10 µM [6] [%] | other results
20 | O=C(NCc1cnn(Cc2ccccc2)c1)[C@@H]1COc2ccccc2O1 [compound 70215] | 92 | – | – | – | –
10 | O=C(CCc1c[nH]c2ccccc12)Nc1nc2ccccc2[nH]1 [compound 70223] | 103 | – | – | – | –
15 | C[C@H](CCc1ccccc1)NC(=O)[C@H]1CCCN(C(=O)CCc2c[nH]c3ccccc23)C1 [compound 70314] | 93 | – | – | – | –
20 | CC[C@@H]1Oc2cc(S(=O)(=O)N(C)CC(=O)N(C)Cc3ccccc3)c(C)cc2NC1=O [compound 70381] | 74 | – | – | – | –
20 | O=C(CCN1C(=O)/C(=C\c2ccccc2)SC1=S)NCCc1c[nH]c2ccccc12 [compound 70388] | 77 | – | – | – | –
9 | Cc1cccc(-c2cc(C(=O)Nc3ccc(S(=O)(=O)N4CCCCC4)cc3)n[nH]2)c1O [compound 70390] | 97 | – | – | – | –
10 | Fc1ccccc1CNC(=S)Nc1cccc(C(F)(F)F)c1 [compound 70465] | 92 | – | – | – | –
5 | FC(F)(F)c1cc(Br)cc(NC(=S)NCc2cccs2)c1 [compound 70495] | 100 | – | – | – | –
2 | O=C(Nc1cccc(C(F)(F)F)c1)Nc1cccc(C(F)(F)F)c1 [compound 70511] | 102 | promising inhibitory activity | – | – | cytotoxicity in Myc-negative HO15.19 (in words) ([3]; counter-screen): highly cytotoxic profile
– | N#Cc1ccc(NNC(=O)c2cc(F)c(Cl)cc2F)c(C(F)(F)F)c1 [compound 70741] | – | recovered the inhibition activity | 14.5 | 16.4 | –
– | N#Cc1ccc(NNC(=O)c2ccc(I)c(F)c2)c(C(F)(F)F)c1 [compound 70742] | – | better inhibition activity | 71.8 | 26.1 | –
– | N#Cc1ccc(NNC(=O)c2ccc(Br)c(F)c2)c(C(F)(F)F)c1 [compound 70743] | – | strong increase in inhibition activity | 74.9 | 38.7 | –
– | N#Cc1ccc(NNC(=O)c2cc(C(F)(F)F)cc(C(F)(F)F)c2)c(C(F)(F)F)c1 [compound 70756] | – | better inhibition activity | 84.1 | 95.7 | –
– | N#Cc1ccc(NNC(=O)c2cc(Cl)cc([N+](=O)[O-])c2)c(C(F)(F)F)c1 [compound 70761] | – | better inhibition activity | 81 | 93.3 | –
– | N#Cc1ccc(NNC(=O)c2cc(F)c(Cl)c(F)c2)c(C(F)(F)F)c1 [compound 70767] | – | strong increase in inhibition activity | 40.3 | 31.6 | –
– | N#Cc1ccc(NNC(=O)c2cc(Cl)cc(Br)c2F)c(C(F)(F)F)c1 [compound 70768] | – | high transcription inhibition activity | 39.8 | 35.3 | –
– | N#Cc1ccc(NNC(=O)c2cc(C(F)(F)F)ccc2F)c(C(F)(F)F)c1 [compound 70769] | – | high transcription inhibition activity | 28.2 | 32.2 | –
– | N#Cc1ccc(NNC(=O)c2cc(F)c(Br)c(Cl)c2)c(C(F)(F)F)c1 [compound 70775] | – | strong increase in inhibition activity | 65.1 | 62.4 | –
– | N#Cc1ccc(NNC(=O)c2cc(Cl)cc(F)c2Br)c(C(F)(F)F)c1 [compound 70776] | – | high transcription inhibition activity | 26.1 | 27.4 | –
– | N#Cc1ccc(NNC(=O)c2cc(OC(F)F)cc(OC(F)F)c2)c(C(F)(F)F)c1 [compound 70792] | – | maintained good transcription inhibition activity | 79.5 | 84.9 | –
– | N#Cc1ccc(NNC(=O)c2cc(F)cc(C(F)(F)F)c2)c(C(F)(F)F)c1 [compound 70794] | – | better inhibition activity | 80.7 | 89.2 | –
– | N#Cc1ccc(NNC(=O)c2ccc(C(F)(F)F)cc2O)c(C(F)(F)F)c1 [compound 70797] | – | activity was maintained | 34.2 | 24.7 | –

SMILES | IC50 [2] [µM] | inhibition at 25 µM [1] [%] | transcription inhibition activity (in words) [2] | inhibition at 10 µM [3] [%] | inhibition at 10 µM [6] [%] | other results
N#Cc1ccc(NNC(=O)c2ccc(C(F)(F)F)cc2)c(C(F)(F)F)c1 [compound 70551] | 4 | 98 | – | – | – | microsomal half-life (T1/2) ([4]; listed as VPC-70551): 2.33 h; half-life at 1 μM ([4]; mouse, pH 7.4, mouse liver microsomes, read-out: microsomal half-life (T1/2)): 2.35 h; half-life ([5]; male, Balb/c, mouse, plasma, ip, read-out: plasma half-life (T1/2) IP): 5.53 h; Tmax ([5]; male, Balb/c, mouse, plasma, IP, read-out: Tmax IP (converted)): 1 h; Cmax ([5]; male, Balb/c, mouse, plasma, IP, read-out: Cmax IP): 6.22 µg/mL; Tmax ([5]; male, Balb/c, mouse, plasma, PO, read-out: Tmax PO (converted)): 8 h; Cmax ([5]; male, Balb/c, mouse, plasma, PO, read-out: Cmax PO): 2.6 µg/mL; adverse effects / signs of toxicity in PK animals ([5]; single dose IP or PO): No obvious adverse effects
